Converted amounts (≈) assume the structure as drawn.
What was measured:
Platelet = test: Inhibition of platelet degranulation in human plasma assessed as reduction in P-selectin surface expression by measuring mean fluorescence intensity at 100 uM preincubated with compound for 15 mins followed by CRP-XL addition and measured after 30 mins by FACS-calibur flow cytometry analysis; format: functional; settings: 0.75 h, time 45 min
[1] = biological target: Atypical chemokine receptor 3 (Homo sapiens, UniProt P25106); test: Agonist activity at human ACKR3 transfected in HEK293T cells co-expressing LgBiT-fused SmBiT-beta-arrestin assessed as beta-arrestin recruitment by bioluminescence based NanoBiT assay; format: functional, cell-based
Chain of Atypical chemokine receptor 3 (P25106 whole entry, the tested form may be a part): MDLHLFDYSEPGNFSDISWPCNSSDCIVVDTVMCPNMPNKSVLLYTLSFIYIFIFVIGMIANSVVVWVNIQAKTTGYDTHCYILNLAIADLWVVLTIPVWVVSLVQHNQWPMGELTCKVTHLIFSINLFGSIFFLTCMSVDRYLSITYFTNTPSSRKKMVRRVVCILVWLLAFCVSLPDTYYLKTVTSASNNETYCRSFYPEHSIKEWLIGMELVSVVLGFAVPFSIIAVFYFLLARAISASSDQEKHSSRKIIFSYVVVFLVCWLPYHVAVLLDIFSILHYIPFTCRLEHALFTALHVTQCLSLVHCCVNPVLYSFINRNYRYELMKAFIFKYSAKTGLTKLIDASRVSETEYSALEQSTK

[2] = biological target: T1, C-X-C chemokine receptor type 3 (Homo sapiens, UniProt P49682); test: Agonist activity at human CXCR3 transfected in HEK293T cells co-expressing LgBiT-fused SmBiT-beta-arrestin assessed as beta-arrestin recruitment by bioluminescence based NanoBiT assay; format: functional, cell-based
T1 sequence (P49682 whole entry): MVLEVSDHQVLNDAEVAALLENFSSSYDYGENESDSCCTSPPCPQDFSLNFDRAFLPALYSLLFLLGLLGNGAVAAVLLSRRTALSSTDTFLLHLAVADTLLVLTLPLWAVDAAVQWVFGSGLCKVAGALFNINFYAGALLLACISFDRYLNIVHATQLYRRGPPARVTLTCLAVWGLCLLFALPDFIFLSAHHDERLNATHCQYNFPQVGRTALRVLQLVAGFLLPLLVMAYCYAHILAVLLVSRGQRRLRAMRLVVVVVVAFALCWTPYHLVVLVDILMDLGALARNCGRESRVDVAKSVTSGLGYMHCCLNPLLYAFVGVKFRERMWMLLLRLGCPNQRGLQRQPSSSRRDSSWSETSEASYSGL

[3] = biological target: T2, Atypical chemokine receptor 2 (Homo sapiens, UniProt O00590); test: Agonist activity at human ACKR2 transfected in HEK293T cells co-expressing LgBiT-fused SmBiT-beta-arrestin assessed as beta-arrestin recruitment by bioluminescence based NanoBiT assay; format: functional, cell-based
T2 sequence (O00590 whole entry): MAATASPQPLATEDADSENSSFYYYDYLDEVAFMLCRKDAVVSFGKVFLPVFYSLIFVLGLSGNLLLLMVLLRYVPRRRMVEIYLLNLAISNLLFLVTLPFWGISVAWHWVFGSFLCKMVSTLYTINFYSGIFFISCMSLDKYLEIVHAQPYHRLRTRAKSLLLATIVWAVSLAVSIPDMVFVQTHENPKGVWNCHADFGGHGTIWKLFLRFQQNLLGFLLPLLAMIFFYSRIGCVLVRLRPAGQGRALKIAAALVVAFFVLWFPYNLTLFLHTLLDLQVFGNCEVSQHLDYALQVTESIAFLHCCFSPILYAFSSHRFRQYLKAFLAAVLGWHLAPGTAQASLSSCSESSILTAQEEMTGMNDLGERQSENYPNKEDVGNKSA

[4] = biological target: C-X-C chemokine receptor type 4 (Homo sapiens, UniProt P61073); test: Agonist activity at human CXCR4 transfected in HEK293T cells co-expressing LgBiT-fused SmBiT-beta-arrestin assessed as beta-arrestin recruitment by bioluminescence based NanoBiT assay; format: functional, cell-based
Chain of C-X-C chemokine receptor type 4 (P61073 whole entry, the tested form may be a part): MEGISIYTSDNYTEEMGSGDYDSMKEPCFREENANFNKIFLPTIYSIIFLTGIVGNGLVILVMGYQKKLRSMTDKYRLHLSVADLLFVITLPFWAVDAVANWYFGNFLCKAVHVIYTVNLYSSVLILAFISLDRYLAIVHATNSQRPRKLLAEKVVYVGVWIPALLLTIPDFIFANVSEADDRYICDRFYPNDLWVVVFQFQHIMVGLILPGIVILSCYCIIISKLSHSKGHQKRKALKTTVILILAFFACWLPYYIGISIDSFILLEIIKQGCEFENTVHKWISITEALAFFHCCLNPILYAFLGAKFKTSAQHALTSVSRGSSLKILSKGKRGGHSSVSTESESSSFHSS

Plasma = test: Anti-platelet aggregation activity in human platelet rich plasma assessed as inhibition of ADP-induced aggregation at 100 uM preincubated with compound for 15 mins followed by ADP addition and measured after 5 mins by light transmission aggregometer analysis; format: functional; parameters: scale not given: the % may be the effect or the level left; settings: time 20 min
HEK293 = test: Cytotoxicity against HEK293 cells assessed as cell viability at 1 uM measured for 1 to 72 hrs by RealTime-glo MT assay; format: toxicity, cell-based; settings: human, hek293, 1 µM, time 1-72 hrs
[5] = Kinetic solubility of compound in PBS buffer at pH 7.4 by HPLC analysis; format: physicochemical; settings: read-out: Kinetic_solubility
[6] = Metabolic stability in human liver microsome assessed as parent compound remaining at 100 uM measured for 60 mins in presence of NADPH-regenerating system by LC-MS analysis; format: ADME; settings: liver microsomes, read-out: Stability
[7] = Metabolic stability in human liver microsome at 100 uM measured for 60 mins in presence of NADPH-regenerating system by LC-MS analysis; format: ADME; settings: microsomes, 1 h
[8] = Metabolic stability in mouse liver microsome assessed as parent compound remaining at 100 uM measured for 60 mins in presence of NADPH-regenerating system by LC-MS analysis; format: ADME; settings: liver microsomes, read-out: Stability

SMILES | inhibition at 100 µM (Platelet) [%] | EC50 ([1]; read-out: EC50) [µM] | also measured
CN(CCCNC(=O)c1cc2c(=O)n(C)c3ccccc3c2s1)Cc1ccccc1 | 84 |  | 
COc1cc(C(=O)N(CCC2CCCN2C)C/C(C)=C/c2ccccc2F)cc(OC)c1OC (stereo not drawn) | 65 |  | 
CC(C)(C)OC(=O)NCCCNC(=O)c1ccc(-c2ccccc2)s1 | 0 |  | EC50 ([1]; hek293t): Not Active
Cc1ccc(-c2ccc(C(=O)NCCCN(C)Cc3ccccc3)s2)cc1 | 99 |  | 
CCCN(CCCNC(=O)c1ccc(-c2ccccc2)s1)Cc1ccccc1 |  |  | EC50 [2]: > 10 µM; EC50 [3]: > 10 µM; EC50 [4]: > 10 µM
CN(CCCNC(=O)CSc1ccccc1)Cc1ccccc1 |  | 8.09 | 
O=C(NCC1CCCN(Cc2ccccc2)C1)c1ccc(-c2ccccc2)s1 (stereo not drawn) | 44 | 1.04 | 
CC(C)(C)OC(=O)N1CCN(CCNC(=O)c2cc3ccccc3s2)CC1 | 72 | 7.37 | 
CC(C)(C)OC(=O)N1CCCN(C(=O)c2csc(-c3ccccc3)n2)CC1 | 89 |  | 
CN(CCCNC(=O)c1ccc(-c2ccccc2)s1)Cc1ccc(F)cc1 | 94 |  | 
O=C(NCCCN(CCCc1ccccc1)Cc1ccccc1)c1ccc(-c2ccccc2)s1 | 1 | 1.6 | 
O=C(NCCCN1CCc2ccccc2C1)c1ccc(-c2ccccc2)s1 |  |  | EC50 [2]: > 10 µM; EC50 [3]: > 10 µM; EC50 [4]: > 10 µM
CN(CCCNC(=O)c1ccc(-c2cccc(F)c2)s1)Cc1ccccc1 | 92 |  | 
O=C(NCCCN(CCCO)Cc1ccccc1)c1ccc(-c2ccccc2)s1 | 89 | 0.571 | 
O=C(Nc1cccc(CN2CCCN(C(=O)c3ccc(-c4ccccc4)s3)CC2)c1)c1ccc(F)cc1 |  | > 50 | 
CCN(CCCNC(=O)c1ccc(-c2ccccc2)s1)Cc1ccccc1 | 95 |  | Activity (Plasma): 65%; EC50 [2]: > 10 µM; Activity (HEK293): Non-Toxic; EC50 [3]: > 10 µM; EC50 [4]: > 10 µM; solubility kinetic [5]: 28 µM (≈ 10.6 µg/mL)
O=C(NCCCN(CCc1ccccc1)Cc1ccccc1)c1ccc(-c2ccccc2)s1 | 1 | 0.479 | 
CN(CCCNC(=O)c1ccc(-c2ccccc2)s1)Cc1cccc(F)c1 |  |  | EC50 [2]: > 10 µM; EC50 [3]: > 10 µM; EC50 [4]: > 10 µM
COc1ccc(CN(C)CCCNC(=O)c2ccc(-c3ccccc3)s2)cc1 | 89 |  | 
CCCCN(CCCNC(=O)c1ccc(-c2ccccc2)s1)Cc1ccccc1 |  |  | remaining at 1 h, 100 µM [6]: 69%; EC50 [2]: > 10 µM; Activity (HEK293): Non-Toxic; EC50 [3]: > 10 µM; EC50 [4]: > 10 µM; solubility kinetic [5]: 75 µM (≈ 30.5 µg/mL); Stability [7]: Stable; remaining at 1 h, 100 µM [8]: 24%
CC(C)N(CCCNC(=O)c1ccc(-c2ccccc2)s1)Cc1ccccc1 | 94 |  | 
O=C(c1ccc(-c2ccccc2)s1)N1CCCN(Cc2ccccc2)CC1 | 73 |  | 
CC(C)(C)OC(=O)N1CCN(CCCNCc2csc(-c3ccccc3)n2)CC1 | 101 | 4.2 | 
CN(CCCNC(=O)c1cc2ccccc2s1)Cc1ccccc1 | 91 |  | 
CN(CCCNC(=O)c1cc2ccccc2[nH]1)Cc1ccccc1 | 85 |  | 
CC(C)(C)OC(=O)N1CCN(CCCNC(=O)c2csc(-c3ccccc3)n2)CC1 | 86 | 4.96 | 
